In ChEMBL document CHEMBL4359842 (J Med Chem, 2019):
pIC50: −log10 of the molar value. Calls of active or inactive are those of the source. The rule behind the calls is not given here.

What was measured:
[1] = Cmax in APPswe/PS1dE9 double mutant-transgenic mouse at 3 mg/kg, iv administered as single dose by LC-MS/MS analysis; format: ADME, organism-based; design: dose 3 mg/kg, route intravenous; settings: in vivo
[2] = Mean residence time in APPswe/PS1dE9 double mutant-transgenic mouse at 3 mg/kg, iv administered as single dose by LC-MS/MS analysis; format: ADME, organism-based; settings: in vivo
Mus musculus [3] = assay: (§1) Improvement in spatial memory impairment in ip dosed APPswe/PS1dE9 double mutant-transgenic mouse model assessed as decrease in area occupied by fibrillar plaque in cortex administered once daily for 12 weeks measured post-last dose by thioflavin S staining-based fluorescence microscopic analysis; format: functional, organism-based
Mus musculus [4] = assay: Improvement in spatial memory impairment in ip dosed APPswe/PS1dE9 double mutant-transgenic mouse model assessed as decrease in number of diffused plaque in hippocampus administered once daily for 12 weeks measured post-last dose by thioflavin S staining-based fluorescence microscopic analysis; format: functional, organism-based
[5] = Primary phase half life in APPswe/PS1dE9 double mutant-transgenic mouse at 30 mg/kg, ip administered as single dose by LC-MS/MS analysis; format: ADME, organism-based; settings: in vivo, read-out: alphat1/2 (converted)
[6] = Ratio of drug level in APPswe/PS1dE9 double mutant-transgenic mouse brain to plasma at 30 mg/kg, ip administered as single dose measured after 0.5 hrs by LC-MS/MS analysis; format: ADME, organism-based; settings: read-out: BPR
Mus musculus [7] = assay: as §1, with “hippocampus” for “cortex”; format: functional, organism-based
[8] = Plasma concentration in APPswe/PS1dE9 double mutant-transgenic mouse at 30 mg/kg, ip administered as single dose measured after 8 hrs by LC-MS/MS analysis; format: ADME, organism-based
Mus musculus [9] = assay: In vivo inhibition of […] phosphorylation in hippocampus of APPswe/PS1dE9 double mutant-transgenic mouse model at 30 mg/kg, ip administered once daily for 12 weeks measured post-last dose by Western blot analysis; format: functional, organism-based
SH-SY5Y [10] = assay: Neuroprotective activity against amyloid beta (25 to 35 residues)-induced cell death in human SH-SY5Y cells assessed as increase in cell viability at 1 to 10 uM preincubated for 1 hr followed by amyloid beta (25 to 35 residues) addition and measured after 72 hrs by MTT assay; format: functional, cell-based
[11] = Clearance in APPswe/PS1dE9 double mutant-transgenic mouse at 3 mg/kg, iv administered as single dose by LC-MS/MS analysis; format: ADME, organism-based; settings: in vivo
Mus musculus [12] = assay: Improvement in spatial memory impairment in APPswe/PS1dE9 double mutant-transgenic mouse model assessed as increase in retention latency time at 15 to 30 mg/kg, ip administered once daily for 12 weeks measured post-last dose by step-through passive avoidance test; format: functional, organism-based
Mus musculus [13] = assay: In vivo inhibition of […] phosphorylation in cortex of APPswe/PS1dE9 double mutant-transgenic mouse model at 30 mg/kg, ip administered once daily for 12 weeks measured post-last dose by Western blot analysis; format: functional, organism-based
Mus musculus [14] = assay: Improvement in spatial memory impairment in ip dosed APPswe/PS1dE9 double mutant-transgenic mouse model assessed as decrease in number of fibrillar plaque in cortex administered once daily for 12 weeks measured post-last dose by thioflavin S staining-based fluorescence microscopic analysis; format: functional, organism-based
Mus musculus [15] = assay: In vivo inhibition of JNK in APPswe/PS1dE9 double mutant-transgenic mouse model assessed as reduction in Tau phosphorylation at Ser235 residue in hippocampus at 30 mg/kg, ip administered once daily for 12 weeks measured post-last dose by Western blot analysis; format: functional, organism-based
[16] = Terminal half life in APPswe/PS1dE9 double mutant-transgenic mouse at 3 mg/kg, iv administered as single dose by LC-MS/MS analysis; format: ADME, organism-based; settings: in vivo, read-out: beta t1/2 (converted)
Mus musculus [17] = assay: In vivo inhibition of JNK in APPswe/PS1dE9 double mutant-transgenic mouse model assessed as reduction in Tau phosphorylation at Thr205 residue in cortex at 30 mg/kg, ip administered once daily for 12 weeks measured post-last dose by Western blot analysis; format: functional, organism-based
[18] = Drug level in APPswe/PS1dE9 double mutant-transgenic mouse brain at 30 mg/kg, ip administered as single dose measured after 2 hrs by LC-MS/MS analysis; format: ADME, organism-based; settings: read-out: Drug uptake
Mus musculus [19] = assay: as §1, with “diffused” for “fibrillar”, “hippocampus” for “cortex”; format: functional, organism-based
Mus musculus [20] = assay: In vivo inhibition of JNK in APPswe/PS1dE9 double mutant-transgenic mouse model assessed as reduction in APP phosphorylation at Thr668 residue in hippocampus at 30 mg/kg, ip administered once daily for 12 weeks measured post-last dose by Western blot analysis; format: functional, organism-based
Mus musculus [21] = assay: Improvement in spatial memory impairment in ip dosed APPswe/PS1dE9 double mutant-transgenic mouse model assessed as decrease in area occupied by diffused plaque in cortex administered once daily for 12 weeks measured post-last dose by thioflavin S staining-based fluorescence microscopic analysis; format: functional, organism-based
[22] = Tmax in APPswe/PS1dE9 double mutant-transgenic mouse at 30 mg/kg, ip administered as single dose by LC-MS/MS analysis; format: ADME, organism-based; settings: in vivo
[23] = Toxicity in APPswe/PS1dE9 double mutant-transgenic mouse model assessed as effect on time to reach target quadrant at 15 to 30 mg/kg, ip administered once daily for 12 weeks measured 48 hrs after training trial by morris water maze test; format: organism-based; settings: in vivo
[24] = Ratio of drug level in APPswe/PS1dE9 double mutant-transgenic mouse brain to plasma at 30 mg/kg, ip administered as single dose measured after 2 hrs by LC-MS/MS analysis; format: ADME, organism-based; settings: read-out: BPR
[25] = target: Mitogen-activated protein kinase 8 (Homo sapiens, UniProt P45983); assay: Inhibition of human JNK1alpha1 using ATF2 as substrate measured after 40 mins in presence of [gamma33P]ATP by scintillation counting analysis
Mitogen-activated protein kinase 8, sequence (P45983 whole entry): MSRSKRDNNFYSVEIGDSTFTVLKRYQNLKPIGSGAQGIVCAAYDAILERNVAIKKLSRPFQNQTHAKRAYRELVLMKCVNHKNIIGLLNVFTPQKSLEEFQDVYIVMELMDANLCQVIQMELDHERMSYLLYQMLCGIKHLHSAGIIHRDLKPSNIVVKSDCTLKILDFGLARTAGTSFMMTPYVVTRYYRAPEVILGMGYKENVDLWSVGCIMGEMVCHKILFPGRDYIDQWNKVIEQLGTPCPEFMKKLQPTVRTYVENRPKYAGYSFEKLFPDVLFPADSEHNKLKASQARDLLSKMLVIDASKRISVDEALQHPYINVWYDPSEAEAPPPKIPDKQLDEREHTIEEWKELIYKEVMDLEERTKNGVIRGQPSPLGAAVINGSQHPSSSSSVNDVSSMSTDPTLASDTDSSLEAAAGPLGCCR

SH-SY5Y [26] = assay: Effect on cell proliferation in human SH-SY5Y cells at 1 to 10 uM measured after 1 hr by MTT assay; format: ADME, cell-based
Mus musculus [27] = assay: In vivo inhibition of JNK in APPswe/PS1dE9 double mutant-transgenic mouse model assessed as reduction in Tau phosphorylation at Thr205 residue in hippocampus at 30 mg/kg, ip administered once daily for 12 weeks measured post-last dose by Western blot analysis; format: functional, organism-based
[28] = Toxicity in APPswe/PS1dE9 double mutant-transgenic mouse assessed as change in body weight at 15 to 30 mg/kg, ip administered once daily for 12 weeks and measured every week during compound dosing; format: organism-based; settings: in vivo, 2016 h
Mus musculus [29] = assay: Improvement in spatial memory impairment in APPswe/PS1dE9 double mutant-transgenic mouse model assessed as decrease in escape latency at 15 to 30 mg/kg, ip administered once daily for 12 weeks measured 24 hrs after training trial by morris water maze test; format: functional, organism-based
[30] = Toxicity in APPswe/PS1dE9 double mutant-transgenic mouse model assessed as effect on swimming speed at 15 to 30 mg/kg, ip administered once daily for 12 weeks measured 48 hrs after training trial by morris water maze test; format: organism-based; settings: in vivo
[31] = Primary phase half life in APPswe/PS1dE9 double mutant-transgenic mouse at 3 mg/kg, iv administered as single dose by LC-MS/MS analysis; format: ADME, organism-based; settings: in vivo, read-out: alphat1/2 (converted)

Cmax [1]: 4550 ng/mL
MRT [2]: 96.6 min
half-life [5]: 20.4 min
Kp at 0.5 h [6]: 0.0024
concentration at 8 h [8]: 78.1 ng/mL
clearance [11]: 24.2 mL/min/kg
half-life [16]: 530 min
concentration at 2 h [18]: 158 ng/g
Tmax [22]: 24 min
Kp at 2 h [24]: 0.135
pIC50 [25]: < 4.00
half-life [31]: 21 min
Structure (SMILES): O=C1N/C(=N/c2ccccc2Cl)S/C1=C1\C(=O)Nc2ccc(F)cc21
Activity (Mus musculus [3]): Dose-dependent effect
Activity (Mus musculus [4]): Dose-dependent effect
Activity (Mus musculus [7]): Dose-dependent effect
inhibition (Mus musculus [9]): Active
Activity (SH-SY5Y [10]): Active
Activity (Mus musculus [12]): Active
inhibition (Mus musculus [13]): Active
Activity (Mus musculus [14]): Dose-dependent effect
inhibition (Mus musculus [15]): Active
inhibition (Mus musculus [17]): Active
Activity (Mus musculus [19]): Dose-dependent effect
inhibition (Mus musculus [20]): Active
Activity (Mus musculus [21]): Dose-dependent effect
Activity [23]: Non-Toxic
Activity (SH-SY5Y [26]): Non-Toxic
inhibition (Mus musculus [27]): Active
Activity [28]: Non-Toxic
Activity (Mus musculus [29]): Active
Activity [30]: Non-Toxic
